# Results: ChEMBL document CHEMBL4017513, “Structure-Activity Relationships of Potent, Targeted Covalent Inhibitors That Abolish Both the Transamidation and GTP Binding Activities of Human Tissue Transglutaminase” (J Med Chem, 2017)
# Columns and labels:
# Homo sapiens = organism: Homo sapiens; assay: Selectivity ratio of Kobs for human TG2 to Kobs for activated human TG3
# [1] = Inhibition of human ECS cells invasion by using Engelbreth-Holm-Swarm mouse tumor matrigel measured after 18 hrs by DAPI staining-based flourescence microscopy; assay type: functional, cell-based
# [2] = biological target: T1, Coagulation factor XIII A chain (Homo sapiens) (UniProt P00488); assay: Inactivation of human F13a assessed as rate constant of enzyme inhibition using FRET- quenched A101 as substrate by fluorescence assay
# T1 sequence (whole entry): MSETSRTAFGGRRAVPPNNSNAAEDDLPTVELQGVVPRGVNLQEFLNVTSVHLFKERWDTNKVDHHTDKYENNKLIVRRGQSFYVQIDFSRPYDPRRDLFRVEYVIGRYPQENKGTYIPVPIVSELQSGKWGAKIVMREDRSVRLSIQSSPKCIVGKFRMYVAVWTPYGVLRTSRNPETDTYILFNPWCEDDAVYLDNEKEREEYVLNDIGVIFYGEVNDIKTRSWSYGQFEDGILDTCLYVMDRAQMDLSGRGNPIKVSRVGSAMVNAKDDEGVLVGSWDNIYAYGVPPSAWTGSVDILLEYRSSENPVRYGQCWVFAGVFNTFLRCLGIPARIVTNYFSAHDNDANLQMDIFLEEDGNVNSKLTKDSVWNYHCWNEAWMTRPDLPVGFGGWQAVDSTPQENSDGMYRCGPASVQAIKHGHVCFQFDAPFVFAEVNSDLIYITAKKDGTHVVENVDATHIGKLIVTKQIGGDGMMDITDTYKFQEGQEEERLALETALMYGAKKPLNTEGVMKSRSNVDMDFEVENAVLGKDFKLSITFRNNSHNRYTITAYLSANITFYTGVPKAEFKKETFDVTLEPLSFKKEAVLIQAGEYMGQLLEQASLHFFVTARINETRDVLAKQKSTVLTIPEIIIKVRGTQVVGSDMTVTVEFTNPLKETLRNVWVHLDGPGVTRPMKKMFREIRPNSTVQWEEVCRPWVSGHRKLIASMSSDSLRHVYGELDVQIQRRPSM
# [3] = biological target: T2, Protein-glutamine gamma-glutamyltransferase 6 (Homo sapiens) (UniProt O95932); assay: Inactivation of human TG6 using AL5 as substrate by colorimetric assay
# T2 sequence (whole entry): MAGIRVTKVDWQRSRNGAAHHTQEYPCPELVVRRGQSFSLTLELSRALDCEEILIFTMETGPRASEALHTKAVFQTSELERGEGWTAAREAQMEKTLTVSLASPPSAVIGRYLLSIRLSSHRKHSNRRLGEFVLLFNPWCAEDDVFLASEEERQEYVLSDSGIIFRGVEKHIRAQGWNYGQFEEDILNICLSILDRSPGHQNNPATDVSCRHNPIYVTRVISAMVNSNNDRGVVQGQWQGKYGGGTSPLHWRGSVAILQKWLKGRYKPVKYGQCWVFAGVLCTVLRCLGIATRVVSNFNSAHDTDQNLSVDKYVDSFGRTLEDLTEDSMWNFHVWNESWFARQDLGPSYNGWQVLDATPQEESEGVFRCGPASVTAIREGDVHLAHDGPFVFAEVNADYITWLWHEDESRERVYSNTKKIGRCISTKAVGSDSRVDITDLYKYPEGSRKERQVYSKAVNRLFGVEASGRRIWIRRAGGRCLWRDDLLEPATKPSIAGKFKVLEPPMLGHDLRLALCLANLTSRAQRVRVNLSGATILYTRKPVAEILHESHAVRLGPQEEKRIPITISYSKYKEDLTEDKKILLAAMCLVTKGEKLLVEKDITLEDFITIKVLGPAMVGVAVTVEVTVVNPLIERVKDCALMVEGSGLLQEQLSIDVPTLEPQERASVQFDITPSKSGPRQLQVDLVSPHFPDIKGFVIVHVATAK
# [4] = biological target: T3, Protein-glutamine gamma-glutamyltransferase (Homo sapiens) (UniProt P21980); assay: Ratio of kinact to Ki for human TG2 by colorimetric assay
# T3 sequence (whole entry): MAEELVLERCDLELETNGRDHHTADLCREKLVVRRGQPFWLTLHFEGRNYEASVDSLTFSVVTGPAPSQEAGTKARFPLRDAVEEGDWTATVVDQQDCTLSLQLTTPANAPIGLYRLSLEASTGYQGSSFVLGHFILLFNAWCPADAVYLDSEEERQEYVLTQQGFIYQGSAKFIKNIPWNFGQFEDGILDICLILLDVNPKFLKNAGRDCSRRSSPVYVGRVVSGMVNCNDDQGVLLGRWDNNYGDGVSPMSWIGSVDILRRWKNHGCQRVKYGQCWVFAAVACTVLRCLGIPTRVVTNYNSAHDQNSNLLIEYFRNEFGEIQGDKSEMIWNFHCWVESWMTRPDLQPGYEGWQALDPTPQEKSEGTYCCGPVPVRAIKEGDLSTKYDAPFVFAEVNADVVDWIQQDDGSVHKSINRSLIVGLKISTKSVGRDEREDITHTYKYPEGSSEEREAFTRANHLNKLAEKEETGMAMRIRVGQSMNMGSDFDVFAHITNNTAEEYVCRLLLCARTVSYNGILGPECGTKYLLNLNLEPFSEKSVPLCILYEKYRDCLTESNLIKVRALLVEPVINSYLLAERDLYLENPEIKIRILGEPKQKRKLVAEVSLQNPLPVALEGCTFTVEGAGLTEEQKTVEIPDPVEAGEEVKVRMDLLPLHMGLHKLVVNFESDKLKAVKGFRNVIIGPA
structure (smiles),measurement,setting,value
C=CC(=O)NCCCC[C@H](NC(=O)OCc1ccccc1)C(=O)NCCOCCOCCNS(=O)(=O)c1cccc2c(N(C)C)cccc12,Selectivity ratio,Homo sapiens,390
same,EC50,[1],> 20 µM
same,K,[2],5.91 ×10⁻³ /min
same,K,[3],6.16 ×10⁻³ /min
same,Ratio,[4],76.4 ×10³ /M/min
